Source: ChEMBL document CHEMBL1149839, “Alkaloids from Daphniphyllum oldhami” (2008)

Tests used:
[1] = tested on: Platelet; assay: Inhibition of PAF-induced platelet aggregation at 2.4 mmol/L; format: functional
[2] = tested on: Platelet; assay: Inhibition of PAF-induced platelet aggregation at 1.0 mmol/L; format: functional

| Structure (SMILES) | inhibition at 2400 µM [1] [%] | inhibition at 1000 µM [2] [%] |
| --- | --- | --- |
| CC(=O)Oc1ccccc1C(=O)O [ASPIRIN] | 44.9 |  |
| CC(=O)O[C@@H](C[C@]12[C@@H]3CCC[C@@]34CCC3[C@H](O)N4[C@@H]1[C@@H](C(C)C)CC[C@@]32C)C(=O)[C@]1(C)CO[C@@]2(C)CC[C@H]1O2 [DAPHNIOLDHANINE H] |  | 10.9 |
| C[C@@H]1CN2[C@H]3[C@@H]4CCC[C@@H]4C(=O)C[C@@H]3[C@]3(C)OC(=O)CC[C@]34CC[C@H]1[C@H]24 [DAPHNIOLDHANINE J] |  | 71.6 |
| CCC1=CC[C@]2(CO1)[C@@H]1CCC3=C4[C@H](CC3)[C@H](C(=O)OC)C[C@]42CN(C)C1 [DEHYDRODAPHNIGRACILINE] |  | 13.4 |
